Measured values from article PMC3885398, “Evaluation of the Antitumor Effects of BPR1J-340, a Potent and Selective FLT3 Inhibitor, Alone or in Combination with an HDAC Inhibitor, Vorinostat, in AML Cancer” (PLoS ONE, 2014).

Experiments:
Experiment in all cases: Invitrogen SelectScreen kinase profiling
Type in all cases: biochemical
Settings in all cases: 100 nM
AKT1 (PKB alpha) = target: T1, AKT1 (PKB alpha) (Homo sapiens, UniProt P31749)
T1 construct: purchased Invitrogen SelectScreen
Experimental: (§1) The FLT3 and VEGFR1/2 Kinase-Glo kinase assays were performed as reported by our earlier study. The VEGFR3 activity analysis was conducted using the same protocol described in the VEGFR1/2 assay. The kinase inhibition profiling and inhibitory activity of FLT3-D835Y, CSF1R, and TRKA were determined by Invitrogen SelectScreen® kinase profiling service (Carlsbad, California, USA).
(§2) BPR1J-340, a urea-substituted 3-phenyl-1H-5-pyrazolylamine-based compound, was designed through chemical modification of sulfonamide series of derivatives (BPR1J-097 series) by a structure-activity relationship (SAR) study (Fig. 1), [32]. For kinase inhibition specificity screening, BPR1J-340 was tested against 59 protein kinases covering the major oncogenic kinases of human protein kinome. […] In addition, BPR1J-340 inhibited TRKA, which is associated with the growth and metastasis of breast cancers, with an IC50 value of 8 nM. Given the high similarity of the ATP binding pockets of FLT3 and the Aurora kinases, the inhibitory activity toward Aurora A and Aurora B were measured. […] Taken together, BPRJ-340 is a selective kinase inhibitor with in vitro activity against FLT3, VEGFR2, VEGFR3 and TRKA receptor tyrosine kinases.

AMPK A1/B1/G1 = target: T2, AMPK A1/B1/G1 (Homo sapiens, UniProt Q13131)
T2 construct: purchased Invitrogen SelectScreen
Experimental: as §1, §2

AXL = target: T3, AXL (Homo sapiens, UniProt P30530)
T3 construct: purchased Invitrogen SelectScreen
Experimental: as §1, §2

CDK2/cyclin A = target: T4, CDK2/cyclin A (Homo sapiens, UniProt P24941)
T4 construct: purchased Invitrogen SelectScreen
Experimental: as §1, §2

CHEK1 (CHK1) = target: T5, CHEK1 (CHK1) (Homo sapiens, UniProt O14757)
T5 construct: purchased Invitrogen SelectScreen
T5 sequence (O14757 whole entry): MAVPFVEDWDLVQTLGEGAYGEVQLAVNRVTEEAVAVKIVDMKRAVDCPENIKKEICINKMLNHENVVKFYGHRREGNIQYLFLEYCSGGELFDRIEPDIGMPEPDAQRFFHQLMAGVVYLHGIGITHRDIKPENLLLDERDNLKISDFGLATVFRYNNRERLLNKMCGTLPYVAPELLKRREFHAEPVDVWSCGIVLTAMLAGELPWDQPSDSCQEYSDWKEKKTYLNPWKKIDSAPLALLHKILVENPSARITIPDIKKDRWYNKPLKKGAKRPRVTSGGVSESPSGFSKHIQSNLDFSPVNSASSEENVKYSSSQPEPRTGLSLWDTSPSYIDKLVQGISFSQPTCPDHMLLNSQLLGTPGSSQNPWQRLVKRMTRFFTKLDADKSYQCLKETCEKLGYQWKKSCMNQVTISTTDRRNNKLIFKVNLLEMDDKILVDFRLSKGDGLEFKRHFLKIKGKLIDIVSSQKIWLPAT
Experimental: as §1, §2

CHEK2 (CHK2) = target: T6, CHEK2 (CHK2) (Homo sapiens, UniProt O96017)
T6 construct: purchased Invitrogen SelectScreen
Experimental: as §1, §2

CLK1 = target: T7, CLK1 (Homo sapiens, UniProt P49759)
T7 construct: purchased Invitrogen SelectScreen
Experimental: as §1, §2

CLK2 = target: T8, CLK2 (Homo sapiens, UniProt P49760)
T8 construct: purchased Invitrogen SelectScreen
T8 sequence (P49760 whole entry): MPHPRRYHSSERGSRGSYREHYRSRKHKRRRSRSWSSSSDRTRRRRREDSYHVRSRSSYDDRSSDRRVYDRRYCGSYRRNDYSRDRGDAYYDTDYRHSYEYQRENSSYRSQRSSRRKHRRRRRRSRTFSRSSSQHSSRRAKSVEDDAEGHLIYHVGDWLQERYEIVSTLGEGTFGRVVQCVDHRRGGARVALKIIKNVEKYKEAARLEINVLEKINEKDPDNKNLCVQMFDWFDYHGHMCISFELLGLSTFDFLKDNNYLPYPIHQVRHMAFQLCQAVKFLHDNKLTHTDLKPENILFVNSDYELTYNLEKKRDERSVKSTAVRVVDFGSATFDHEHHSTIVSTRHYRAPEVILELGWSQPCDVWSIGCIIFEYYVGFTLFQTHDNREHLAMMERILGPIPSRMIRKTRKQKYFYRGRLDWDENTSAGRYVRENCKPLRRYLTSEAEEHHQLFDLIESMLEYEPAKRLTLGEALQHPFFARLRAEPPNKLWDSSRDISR
Experimental: as §1, §2

CSK = target: T9, CSK (Homo sapiens, UniProt P41240)
T9 construct: purchased Invitrogen SelectScreen
T9 sequence (P41240 whole entry): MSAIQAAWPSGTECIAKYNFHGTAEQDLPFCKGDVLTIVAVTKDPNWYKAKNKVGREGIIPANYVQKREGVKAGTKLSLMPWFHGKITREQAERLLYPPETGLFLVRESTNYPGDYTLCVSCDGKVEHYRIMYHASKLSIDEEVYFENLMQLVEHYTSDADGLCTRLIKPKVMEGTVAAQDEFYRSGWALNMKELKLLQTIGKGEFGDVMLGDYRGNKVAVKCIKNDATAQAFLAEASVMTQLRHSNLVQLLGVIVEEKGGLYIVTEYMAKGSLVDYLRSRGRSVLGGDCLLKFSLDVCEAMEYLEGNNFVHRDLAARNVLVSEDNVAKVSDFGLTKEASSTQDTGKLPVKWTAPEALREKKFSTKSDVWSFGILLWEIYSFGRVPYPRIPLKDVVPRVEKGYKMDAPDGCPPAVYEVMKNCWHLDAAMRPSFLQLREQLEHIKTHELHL
Experimental: as §1, §2

ERBB2 (HER2) = target: T10, ERBB2 (HER2) (Homo sapiens, UniProt P04626)
T10 construct: purchased Invitrogen SelectScreen
Experimental: as §1, §2

FGFR1 = target: T11, FGFR1 (Homo sapiens, UniProt P11362)
T11 construct: purchased Invitrogen SelectScreen
Experimental: as §1, §2

FRAP1 (mTOR) = target: T12, FRAP1 (mTOR) (Homo sapiens, UniProt P42345)
T12 construct: purchased Invitrogen SelectScreen
Experimental: as §1, §2

GSK3B (GSK3 beta) = target: T13, GSK3B (GSK3 beta) (Homo sapiens, UniProt P49841)
T13 construct: purchased Invitrogen SelectScreen
Experimental: as §1, §2

IGF1R = target: T14, IGF1R (Homo sapiens, UniProt P08069)
T14 construct: purchased Invitrogen SelectScreen
Experimental: as §1, §2

JAK1 = target: T15, JAK1 (Homo sapiens, UniProt P23458)
T15 construct: purchased Invitrogen SelectScreen
Experimental: as §1, §2

JAK2 = target: T16, JAK2 (Homo sapiens, UniProt O60674)
T16 construct: purchased Invitrogen SelectScreen
Experimental: as §1, §2

MAP2K1 (MEK1) = target: T17, MAP2K1 (MEK1) (Homo sapiens, UniProt Q02750)
T17 construct: purchased Invitrogen SelectScreen
Experimental: as §1, §2

MAPK14 (p38 alpha) = target: T18, MAPK14 (p38 alpha) (Homo sapiens, UniProt Q16539)
T18 construct: purchased Invitrogen SelectScreen
Experimental: as §1, §2

MAPK8 (JNK1) = target: T19, MAPK8 (JNK1) (Homo sapiens, UniProt P45983)
T19 construct: purchased Invitrogen SelectScreen
Experimental: as §1, §2

MET (cMet) = target: T20, MET (cMet) (Homo sapiens, UniProt P08581)
T20 construct: purchased Invitrogen SelectScreen
Experimental: as §1, §2

MST1R (RON) = target: T21, MST1R (RON) (Homo sapiens, UniProt Q04912)
T21 construct: purchased Invitrogen SelectScreen
Experimental: as §1, §2

NEK2 = target: T22, NEK2 (Homo sapiens, UniProt P51955)
T22 construct: purchased Invitrogen SelectScreen
Experimental: as §1, §2

PDGFRA (PDGFR alpha) = target: T23, PDGFRA (PDGFR alpha) (Homo sapiens, UniProt P16234)
T23 construct: purchased Invitrogen SelectScreen
Experimental: as §1, §2

PIM1 = target: T24, PIM1 (Homo sapiens, UniProt P11309)
T24 construct: purchased Invitrogen SelectScreen
T24 sequence (P11309 whole entry): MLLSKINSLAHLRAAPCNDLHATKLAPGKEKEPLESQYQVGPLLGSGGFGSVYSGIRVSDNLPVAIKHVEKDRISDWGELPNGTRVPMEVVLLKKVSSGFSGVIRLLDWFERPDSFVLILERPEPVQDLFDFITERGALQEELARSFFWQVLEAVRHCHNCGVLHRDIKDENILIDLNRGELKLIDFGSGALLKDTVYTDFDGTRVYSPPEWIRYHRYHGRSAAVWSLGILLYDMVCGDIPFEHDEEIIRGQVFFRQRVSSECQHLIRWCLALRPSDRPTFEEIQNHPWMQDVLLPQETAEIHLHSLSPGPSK
Experimental: as §1, §2

PLK1 = target: T25, PLK1 (Homo sapiens, UniProt P53350)
T25 construct: purchased Invitrogen SelectScreen
T25 sequence (P53350 whole entry): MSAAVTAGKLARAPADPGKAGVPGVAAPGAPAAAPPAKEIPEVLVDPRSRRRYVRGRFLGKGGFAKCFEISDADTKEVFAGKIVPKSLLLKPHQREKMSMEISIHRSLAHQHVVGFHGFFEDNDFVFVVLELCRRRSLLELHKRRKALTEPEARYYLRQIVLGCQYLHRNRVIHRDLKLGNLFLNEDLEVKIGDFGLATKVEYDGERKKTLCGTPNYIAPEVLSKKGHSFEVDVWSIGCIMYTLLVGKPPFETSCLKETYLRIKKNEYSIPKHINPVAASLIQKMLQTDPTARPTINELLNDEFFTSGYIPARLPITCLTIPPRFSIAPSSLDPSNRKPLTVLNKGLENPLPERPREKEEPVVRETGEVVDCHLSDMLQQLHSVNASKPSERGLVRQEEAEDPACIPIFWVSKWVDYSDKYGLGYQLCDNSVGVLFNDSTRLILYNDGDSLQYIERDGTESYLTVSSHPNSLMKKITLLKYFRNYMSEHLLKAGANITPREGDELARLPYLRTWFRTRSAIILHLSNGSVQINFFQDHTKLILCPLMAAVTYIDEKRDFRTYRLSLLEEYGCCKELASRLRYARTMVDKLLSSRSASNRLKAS
Experimental: as §1, §2

RAF1 (cRAF) Y340D Y341D = target: T26, RAF1 (cRAF) Y340D Y341D (Homo sapiens, UniProt P04049, Y340D/Y341D)
T26 construct: purchased Invitrogen SelectScreen
Experimental: as §1, §2

RPS6KA2 (RSK3) = target: T27, RPS6KA2 (RSK3) (Homo sapiens, UniProt Q15349)
T27 construct: purchased Invitrogen SelectScreen
Experimental: as §1, §2

RPS6KA3 (RSK2) = target: T28, RPS6KA3 (RSK2) (Homo sapiens, UniProt P51812)
T28 construct: purchased Invitrogen SelectScreen
T28 sequence (P51812 whole entry): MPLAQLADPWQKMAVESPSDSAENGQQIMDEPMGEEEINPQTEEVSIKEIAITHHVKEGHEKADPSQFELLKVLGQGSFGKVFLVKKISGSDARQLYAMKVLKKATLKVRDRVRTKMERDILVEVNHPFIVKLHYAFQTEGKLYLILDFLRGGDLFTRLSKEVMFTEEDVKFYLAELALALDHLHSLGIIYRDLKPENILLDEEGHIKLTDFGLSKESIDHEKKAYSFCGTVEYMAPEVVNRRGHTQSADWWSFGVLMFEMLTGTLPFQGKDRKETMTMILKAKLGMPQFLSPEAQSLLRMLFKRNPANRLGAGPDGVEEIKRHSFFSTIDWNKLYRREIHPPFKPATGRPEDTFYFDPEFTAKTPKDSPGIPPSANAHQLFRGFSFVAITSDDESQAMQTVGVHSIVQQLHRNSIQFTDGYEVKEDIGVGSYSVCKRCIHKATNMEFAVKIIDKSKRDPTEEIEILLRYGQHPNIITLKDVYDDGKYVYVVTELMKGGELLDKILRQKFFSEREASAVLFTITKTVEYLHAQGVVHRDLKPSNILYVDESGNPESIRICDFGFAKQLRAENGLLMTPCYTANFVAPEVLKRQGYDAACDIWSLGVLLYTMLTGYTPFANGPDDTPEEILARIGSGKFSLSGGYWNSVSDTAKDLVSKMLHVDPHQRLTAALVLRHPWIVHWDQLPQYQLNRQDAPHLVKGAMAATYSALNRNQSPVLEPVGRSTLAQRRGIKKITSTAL
Experimental: as §1, §2

RPS6KA5 (MSK1) = target: T29, RPS6KA5 (MSK1) (Homo sapiens, UniProt O75582)
T29 construct: purchased Invitrogen SelectScreen
Experimental: as §1, §2

SGK (SGK1) = target: T30, SGK (SGK1) (Homo sapiens, UniProt O00141)
T30 construct: purchased Invitrogen SelectScreen
Experimental: as §1, §2

SGK2 = target: T31, SGK2 (Homo sapiens, UniProt Q9HBY8)
T31 construct: purchased Invitrogen SelectScreen
Experimental: as §1, §2

SGKL (SGK3) = target: T32, SGKL (SGK3) (Homo sapiens, UniProt Q96BR1)
T32 construct: purchased Invitrogen SelectScreen
Experimental: as §1, §2

SRC = target: T33, SRC (Homo sapiens, UniProt P12931)
T33 construct: purchased Invitrogen SelectScreen
Experimental: as §1, §2

TEK (Tie2) = target: T34, TEK (Tie2) (Homo sapiens, UniProt Q02763)
T34 construct: purchased Invitrogen SelectScreen
T34 sequence (Q02763 23-1124): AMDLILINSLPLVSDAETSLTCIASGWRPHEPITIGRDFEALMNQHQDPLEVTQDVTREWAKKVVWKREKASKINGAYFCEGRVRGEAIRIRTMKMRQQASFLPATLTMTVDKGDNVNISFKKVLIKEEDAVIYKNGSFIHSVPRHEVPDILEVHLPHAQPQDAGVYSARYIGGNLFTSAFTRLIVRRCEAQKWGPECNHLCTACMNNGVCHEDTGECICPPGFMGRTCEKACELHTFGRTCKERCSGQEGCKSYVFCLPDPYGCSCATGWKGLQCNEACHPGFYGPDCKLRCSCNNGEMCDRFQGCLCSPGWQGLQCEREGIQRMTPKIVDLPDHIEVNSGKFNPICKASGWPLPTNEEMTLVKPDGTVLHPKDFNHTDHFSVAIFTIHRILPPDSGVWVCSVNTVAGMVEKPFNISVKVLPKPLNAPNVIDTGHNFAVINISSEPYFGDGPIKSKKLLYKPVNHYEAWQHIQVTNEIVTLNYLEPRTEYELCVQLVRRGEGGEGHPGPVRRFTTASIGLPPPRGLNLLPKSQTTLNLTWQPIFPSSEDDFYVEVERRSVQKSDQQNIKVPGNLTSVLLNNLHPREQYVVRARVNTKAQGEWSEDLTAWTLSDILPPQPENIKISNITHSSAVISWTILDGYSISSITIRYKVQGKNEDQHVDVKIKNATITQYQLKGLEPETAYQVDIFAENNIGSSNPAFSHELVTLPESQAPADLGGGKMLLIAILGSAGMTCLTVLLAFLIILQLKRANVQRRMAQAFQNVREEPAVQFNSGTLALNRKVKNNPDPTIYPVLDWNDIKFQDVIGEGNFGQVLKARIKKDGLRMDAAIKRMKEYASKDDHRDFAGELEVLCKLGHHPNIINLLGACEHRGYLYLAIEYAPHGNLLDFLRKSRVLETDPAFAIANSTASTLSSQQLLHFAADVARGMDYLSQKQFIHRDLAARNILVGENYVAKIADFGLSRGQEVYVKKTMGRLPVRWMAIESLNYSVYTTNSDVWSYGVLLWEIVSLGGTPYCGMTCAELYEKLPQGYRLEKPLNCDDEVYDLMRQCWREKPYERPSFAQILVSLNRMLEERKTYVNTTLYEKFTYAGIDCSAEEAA
Experimental: as §1, §2

TYK2 = target: T35, TYK2 (Homo sapiens, UniProt P29597)
T35 construct: purchased Invitrogen SelectScreen
Experimental: as §1, §2

TYRO3 (RSE) = target: T36, TYRO3 (RSE) (Homo sapiens, UniProt Q06418)
T36 construct: purchased Invitrogen SelectScreen
T36 sequence (Q06418 41-890): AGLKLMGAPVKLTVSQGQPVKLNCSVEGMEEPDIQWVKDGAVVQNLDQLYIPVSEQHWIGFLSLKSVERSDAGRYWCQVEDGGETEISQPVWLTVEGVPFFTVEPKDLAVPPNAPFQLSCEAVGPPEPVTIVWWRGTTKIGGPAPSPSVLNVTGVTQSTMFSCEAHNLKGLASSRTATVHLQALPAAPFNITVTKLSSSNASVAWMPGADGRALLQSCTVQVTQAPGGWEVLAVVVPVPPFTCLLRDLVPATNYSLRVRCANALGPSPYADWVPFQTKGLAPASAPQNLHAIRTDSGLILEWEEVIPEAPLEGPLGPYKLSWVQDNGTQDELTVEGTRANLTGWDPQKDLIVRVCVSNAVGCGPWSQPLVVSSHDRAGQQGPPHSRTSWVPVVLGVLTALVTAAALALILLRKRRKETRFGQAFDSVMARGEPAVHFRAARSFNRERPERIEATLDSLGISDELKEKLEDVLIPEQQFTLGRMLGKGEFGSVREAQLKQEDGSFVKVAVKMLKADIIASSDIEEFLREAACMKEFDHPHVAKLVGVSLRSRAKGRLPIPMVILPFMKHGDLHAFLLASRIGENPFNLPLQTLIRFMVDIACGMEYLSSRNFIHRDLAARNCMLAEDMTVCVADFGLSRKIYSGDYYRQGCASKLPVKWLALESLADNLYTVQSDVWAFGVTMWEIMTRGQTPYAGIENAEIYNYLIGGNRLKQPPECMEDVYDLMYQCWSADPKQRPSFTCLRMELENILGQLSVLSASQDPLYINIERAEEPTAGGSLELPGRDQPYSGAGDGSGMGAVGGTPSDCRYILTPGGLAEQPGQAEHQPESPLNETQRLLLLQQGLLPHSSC
Experimental: as §1, §2

In the case of `CCc1cc(NC(=O)NCc2ccc(-c3cc(NC(=O)c4ccc(CN5CCN(C)CC5)cc4)[nH]n3)cc2)no1` [BPR1J-340, N1-(3-4-[([(5-ethyl-3-isoxazolyl)amino]carbonylamino)methyl]phenyl-1H-5-pyrazolyl)-4-[(4-methylpiperazino)methyl]benzamide], the inhibition at 0.1 µM (AKT1 (PKB alpha)) is reported as -2%, the inhibition at 0.1 µM (AMPK A1/B1/G1) is reported as 30% and the inhibition at 0.1 µM (AXL) is reported as -4%. For the same compound, the inhibition at 0.1 µM (CDK2/cyclin A) was 5%, the inhibition at 0.1 µM (CHEK1 (CHK1)) was 27% and the inhibition at 0.1 µM (CHEK2 (CHK2)) was -6%. The inhibition at 0.1 µM (CLK1) was 6%, the inhibition at 0.1 µM (CLK2) was -7% and the inhibition at 0.1 µM (CSK) was 3%. The inhibition at 0.1 µM (ERBB2 (HER2)) was 11%, the inhibition at 0.1 µM (FGFR1) was 17% and the inhibition at 0.1 µM (FRAP1 (mTOR)) was -8%. For the same compound, the inhibition at 0.1 µM (GSK3B (GSK3 beta)) was 36%, the inhibition at 0.1 µM (IGF1R) was 12% and the inhibition at 0.1 µM (JAK1) was -3%. It also gave an inhibition at 0.1 µM (JAK2) of 9%, an inhibition at 0.1 µM (MAP2K1 (MEK1)) of 0% and an inhibition at 0.1 µM (MAPK14 (p38 alpha)) of 24%. The inhibition at 0.1 µM (MAPK8 (JNK1)) was 14%, the inhibition at 0.1 µM (MET (cMet)) was 17% and the inhibition at 0.1 µM (MST1R (RON)) was 6%. For the same compound, the inhibition at 0.1 µM (NEK2) was 2%, the inhibition at 0.1 µM (PDGFRA (PDGFR alpha)) was 38% and the inhibition at 0.1 µM (PIM1) was -5%. For the same compound, the inhibition at 0.1 µM (PLK1) was 4%, the inhibition at 0.1 µM (RAF1 (cRAF) Y340D Y341D) was 4% and the inhibition at 0.1 µM (RPS6KA2 (RSK3)) was 9%. It also gave an inhibition at 0.1 µM (RPS6KA3 (RSK2)) of 0%, an inhibition at 0.1 µM (RPS6KA5 (MSK1)) of 16% and an inhibition at 0.1 µM (SGK (SGK1)) of 11%. It also gave an inhibition at 0.1 µM (SGK2) of 22%, an inhibition at 0.1 µM (SGKL (SGK3)) of 12% and an inhibition at 0.1 µM (SRC) of 34%. It also gave an inhibition at 0.1 µM (TEK (Tie2)) of 42%, an inhibition at 0.1 µM (TYK2) of 23% and an inhibition at 0.1 µM (TYRO3 (RSE)) of 15%.
